This is an account of results in ChEMBL document CHEMBL1201862, “PubChem BioAssay data set” (2004).

SMILES strings stand for the structures.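 Briefly, cells in 96-well plates were exposed to five compound concentrations for 48 h, and endpoints were estimated by linear interpolation. Abbreviation: GI50, concentration required for 50% inhibition of growth.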 The source made the active and inactive calls. Cut-off read from the data, not from the text of the source: active = GI50 up to about 1.1 µM and inactive = higher.

Some test systems named below: A498; HCC 2998; HL-60; HOP-62; HOP-92; HT-29; KM12; NCI-H460; OVCAR-3; SF-295; SF-539; SK-MEL-5; SNB-19; TK-10; UACC-257; UACC-62; UO-31; NCI/ADR-RES; PC-3; MDA-MB-231.
Common to all, as to assay: NCI anticancer screen, dose series, 48 h

With `COc1ccc(/C=C2/C(=O)N(C(=O)c3ccc(Cl)cc3)N=C2C)cc1OC`, the GI50 in the experiment with A498, with HCC 2998, with HL-60, in the experiment with HOP-62, with HOP-92 and with HT-29 was > 100 µM (inactive) in each case. Besides, the GI50 with KM12, in the experiment on NCI-H460, with OVCAR-3, in the experiment on SF-295, in the experiment with SF-539 and with SK-MEL-5 was > 100 µM (inactive) in each case. In addition, the GI50 in the experiment on SNB-19, with TK-10, in the experiment on UACC-257, with UACC-62 and with UO-31 was > 100 µM (inactive) in each case.
Regarding `CC[N+]1(C)CCC(O)(/C=C/c2ccc(Cl)c(Cl)c2)C(C(=O)/C=C/c2ccc(Cl)c(Cl)c2)C1` (stereo not drawn), the GI50 with A498 was 2.52 µM (inactive); with HCC 2998, 1.95 µM (inactive); in the experiment on HL-60 it was 1.9 µM (inactive); in the experiment with HOP-62 it was 2.49 µM (inactive); in the experiment with HOP-92, 1.7 µM (inactive); in the experiment with HT-29, 2.07 µM (inactive). The GI50 is 1.88 µM (inactive) in the experiment with KM12; 2.99 µM (inactive) with NCI-H460; 2.51 µM (inactive) in the experiment with NCI/ADR-RES; 3.09 µM (inactive) in the experiment on OVCAR-3; 2.18 µM (inactive) in the experiment on PC-3; 4.14 µM (inactive) in the experiment with SF-295. The GI50 in the experiment with SF-539 is 3.03 µM (inactive); in the experiment on SK-MEL-5 it was 2.68 µM (inactive); in the experiment on SNB-19 it was 6.11 µM (inactive); in the experiment on TK-10, 2.43 µM (inactive); in the experiment with UACC-257, 2.38 µM (inactive); in the experiment on UACC-62, 1.74 µM (inactive). Further, in the experiment on UO-31, the GI50 was 1.83 µM (inactive).
Turning to `Cc1ccc(C(=O)/C=C/c2ccccc2O)c(C)c1`, the GI50 is > 100 µM (inactive) in the experiment with A498; > 100 µM (inactive) with HCC 2998; > 100 µM (inactive) in the experiment on HL-60; > 100 µM (inactive) in the experiment with HOP-62; > 100 µM (inactive) in the experiment on HOP-92; 0.8 µM (active) in the experiment on HT-29. Besides, the GI50 in the experiment with KM12, in the experiment on NCI-H460, with OVCAR-3, in the experiment on SF-295, in the experiment with SF-539 and in the experiment with SK-MEL-5 was > 100 µM (inactive) throughout. The GI50 in the experiment on SNB-19, in the experiment with TK-10, in the experiment with UACC-257, in the experiment on UACC-62 and in the experiment on UO-31 was > 100 µM (inactive) each time.
As to `Clc1ccccc1C(SCc1ccccc1)SCc1ccccc1`, the GI50 was > 100 µM (inactive) with HCC 2998; 64.7 µM (inactive) in the experiment on HL-60; > 100 µM (inactive) in the experiment on HOP-62; > 100 µM (inactive) with HOP-92; > 100 µM (inactive) in the experiment on HT-29; 93.8 µM (inactive) with KM12. Also, the GI50 in the experiment with NCI-H460, with NCI/ADR-RES, with OVCAR-3, in the experiment with PC-3, with SF-295 and with SF-539 was > 100 µM (inactive) throughout. In addition, the GI50 was > 100 µM (inactive) in the experiment on SK-MEL-5; > 100 µM (inactive) with SNB-19; > 100 µM (inactive) with TK-10; > 100 µM (inactive) in the experiment on UACC-257; 94.4 µM (inactive) in the experiment with UACC-62; > 100 µM (inactive) with UO-31.
In the case of `OC1CSCCCSCCSCCCSC1`, the GI50 in the experiment with A498, in the experiment with HCC 2998, in the experiment on HOP-62, with HOP-92, in the experiment on HT-29 and in the experiment on MDA-MB-231 was > 100 µM (inactive) each time. Besides, the GI50 in the experiment with NCI-H460, with OVCAR-3, with PC-3, with SF-295, with SF-539 and in the experiment on SK-MEL-5 was > 100 µM (inactive) in each case. The GI50 in the experiment on SNB-19, in the experiment with TK-10, with UACC-257, in the experiment with UACC-62 and in the experiment with UO-31 was > 100 µM (inactive) throughout.
As to `O=C(CC(=O)n1nc(-c2ccccc2)c(/N=N/c2ccc(Cl)cc2)c1-c1ccccc1)Nc1cccc(Cl)c1`, the GI50 in the experiment with A498 is 34.3 µM (inactive); in the experiment on HCC 2998 it was > 100 µM (inactive); with HL-60, 28.5 µM (inactive); in the experiment with HOP-62 it was 38 µM (inactive); with HOP-92 it was > 100 µM (inactive); in the experiment with HT-29 it was 75.7 µM (inactive). For the same compound, the GI50 with KM12 is > 100 µM (inactive); with MDA-MB-231, 54.7 µM (inactive); in the experiment with NCI-H460 it was 34.1 µM (inactive); in the experiment on PC-3, 75 µM (inactive); in the experiment on SK-MEL-5, > 100 µM (inactive); with SNB-19, 41.1 µM (inactive). The GI50 in the experiment with TK-10 was > 100 µM (inactive); in the experiment with UACC-257, > 100 µM (inactive); in the experiment on UACC-62, 73.8 µM (inactive); with UO-31, 30.5 µM (inactive).
For the compound `O=C1NC(=O)C(CCC(=O)c2ccc3ccccc3c2)C(=O)N1`, the GI50 in the experiment with A498, in the experiment on HCC 2998, with HL-60, with HOP-62, with HOP-92 and with HT-29 was > 100 µM (inactive) in each case. The GI50 with KM12, in the experiment on NCI-H460, with OVCAR-3, in the experiment with SF-295, in the experiment on SF-539 and in the experiment on SK-MEL-5 was > 100 µM (inactive) throughout. Also, the GI50 in the experiment with SNB-19, in the experiment with TK-10, with UACC-257, in the experiment with UACC-62 and with UO-31 was > 100 µM (inactive) in each case.
Regarding `O=c1cc2oc3ccc4ccccc4c3cc-2c(=O)[nH]1`, the GI50 with A498 was 16.1 µM (inactive); with HCC 2998, 16.9 µM (inactive); in the experiment with HL-60, 1.51 µM (inactive); with HOP-62, 10.8 µM (inactive); in the experiment on HT-29, 16 µM (inactive); in the experiment with KM12 it was 20 µM (inactive). The GI50 in the experiment with NCI-H460 is 22.9 µM (inactive); with NCI/ADR-RES it was 17.5 µM (inactive); with OVCAR-3 it was 11.4 µM (inactive); in the experiment with PC-3, 10.6 µM (inactive); in the experiment with SF-295, 20.7 µM (inactive); with SF-539 it was 9.79 µM (inactive). Besides, the GI50 is 15.5 µM (inactive) in the experiment with SK-MEL-5; 14 µM (inactive) in the experiment on SNB-19; 16.4 µM (inactive) in the experiment on UACC-257; 17.9 µM (inactive) in the experiment on UACC-62; 11 µM (inactive) in the experiment with UO-31.
As to `O=c1c(-c2ccc3c(c2)OCO3)coc2c3c(ccc12)OCO3`, the GI50 is 29 µM (inactive) in the experiment with A498; 58.1 µM (inactive) in the experiment on HCC 2998; > 100 µM (inactive) in the experiment with HL-60; 20.1 µM (inactive) in the experiment with HOP-62; 18 µM (inactive) in the experiment on HOP-92; 30.8 µM (inactive) in the experiment with KM12. Further, the GI50 was 21.5 µM (inactive) in the experiment with MDA-MB-231; 17.2 µM (inactive) in the experiment with NCI-H460; 28.5 µM (inactive) in the experiment on OVCAR-3; 75.9 µM (inactive) in the experiment on PC-3; 18 µM (inactive) with SF-295; 20 µM (inactive) in the experiment with SF-539. Besides, the GI50 was > 100 µM (inactive) in the experiment on SK-MEL-5; 21.4 µM (inactive) in the experiment with SNB-19; 19.1 µM (inactive) with TK-10; 53.1 µM (inactive) in the experiment on UACC-257; 76.7 µM (inactive) in the experiment on UACC-62; 43.7 µM (inactive) in the experiment on UO-31.
`NCCCC(N)(C(=O)O)C(F)F` (stereo not drawn) [EFLORNITHINE]: the GI50 in the experiment with A498 is > 5000 µM (inactive); in the experiment on HCC 2998 it was > 5000 µM (inactive); in the experiment with HL-60, > 3910 µM (inactive); with HOP-62, > 5000 µM (inactive); in the experiment on HOP-92, > 1890 µM (inactive); with HT-29 it was > 2790 µM (inactive). The GI50 was > 5000 µM (inactive) with KM12; 933 µM (inactive) in the experiment with NCI-H460; > 5000 µM (inactive) with NCI/ADR-RES; > 3940 µM (inactive) in the experiment on OVCAR-3; 2270 µM (inactive) in the experiment with SF-295; > 5000 µM (inactive) with SF-539. The GI50 in the experiment on SK-MEL-5 is > 5000 µM (inactive); in the experiment with SNB-19, > 5000 µM (inactive); with TK-10 it was > 100 µM (inactive); in the experiment with UACC-257, > 5000 µM (inactive); in the experiment on UACC-62 it was > 5000 µM (inactive); with UO-31, > 5000 µM (inactive).
On to `O=CN/C=C/c1cc(O)ccc1O` [ERBSTATIN], for which the GI50 was 59.7 µM (inactive) in the experiment with A498; > 100 µM (inactive) in the experiment with HCC 2998; 5.14 µM (inactive) in the experiment with HL-60; > 74.1 µM (inactive) with HOP-62; 11.6 µM (inactive) with HOP-92; 22.2 µM (inactive) in the experiment with HT-29. Moreover, the GI50 in the experiment on KM12 is > 89.3 µM (inactive); with NCI-H460, 56.2 µM (inactive); in the experiment with NCI/ADR-RES, 18.1 µM (inactive); in the experiment on OVCAR-3 it was 9.35 µM (inactive); in the experiment with PC-3 it was > 100 µM (inactive); in the experiment with SF-295 it was 58.1 µM (inactive). For the same compound, the GI50 is 22.7 µM (inactive) in the experiment with SF-539; 18.7 µM (inactive) in the experiment on SK-MEL-5; > 66.7 µM (inactive) in the experiment with SNB-19; 17 µM (inactive) in the experiment with TK-10; 13.5 µM (inactive) in the experiment with UACC-257; 13.7 µM (inactive) with UACC-62. Besides, the GI50 with UO-31 is 29.7 µM (inactive).
